Source: ChEMBL document CHEMBL2203015, “Synthesis and biological evaluation of 5-aryloxypyrazole derivatives bearing a rhodanine-3-aromatic acid as potential antimicrobial agents” (Bioorg Med Chem Lett, 2012)
In brackets after ≈: the same amount, converted by molar mass. Activity calls are given as the source filed them. The calls are words filed in the database; no cut-off is given here.

Legend:
Staphylococcus aureus [1] = experiment: Antibacterial activity against Staphylococcus aureus KCTC 209 incubated for 24 hrs serial dilution method; format: functional; conditions: KCTC 209, 24 h
Staphylococcus aureus [2] = experiment: Potency index, ratio of MIC for norfloxacin to MIC for compound against quinolone-resistant Staphylococcus aureus CCARM 3505 incubated for 24 hrs serial dilution method; format: functional
Staphylococcus aureus [3] = experiment: Potency index, ratio of MIC for norfloxacin to MIC for compound against multidrug-resistant Staphylococcus aureus CCARM 3506 incubated for 24 hrs serial dilution method; format: functional
Staphylococcus aureus [4] = experiment: Antibacterial activity against Staphylococcus aureus KCTC 503 incubated for 24 hrs serial dilution method; format: functional; conditions: KCTC 503, 24 h
Staphylococcus aureus [5] = experiment: Antibacterial activity against quinolone-resistant Staphylococcus aureus CCARM 3505 incubated for 24 hrs serial dilution method; format: functional; conditions: CCARM 3505, 24 h
Staphylococcus aureus [6] = experiment: Antibacterial activity against quinolone-resistant Staphylococcus aureus CCARM 3519 incubated for 24 hrs serial dilution method; format: functional; conditions: CCARM 3519, 24 h
Staphylococcus aureus [7] = experiment: Antibacterial activity against Staphylococcus aureus RN 4220 incubated for 24 hrs serial dilution method; format: functional; conditions: RN 4220, 24 h
Staphylococcus aureus [8] = experiment: Antibacterial activity against multidrug-resistant Staphylococcus aureus CCARM 3506 incubated for 24 hrs serial dilution method; format: functional; conditions: CCARM 3506, 24 h
Escherichia coli [9] = experiment: Antibacterial activity against Escherichia coli 1356 incubated for 24 hrs serial dilution method; format: functional; conditions: Escherichia coli, 1356, 24 h
Staphylococcus aureus [10] = experiment: Potency index, ratio of MIC for norfloxacin to MIC for compound against quinolone-resistant Staphylococcus aureus CCARM 3519 incubated for 24 hrs serial dilution method; format: functional
Staphylococcus aureus [11] = experiment: Potency index, ratio of MIC for norfloxacin to MIC for compound against multidrug-resistant Staphylococcus aureus CCARM 3167 incubated for 24 hrs serial dilution method; format: functional
Staphylococcus aureus [12] = experiment: Antibacterial activity against multidrug-resistant Staphylococcus aureus CCARM 3167 incubated for 24 hrs serial dilution method; format: functional; conditions: CCARM 3167, 24 h
Staphylococcus aureus [13] = experiment: Antibacterial activity against Staphylococcus aureus RN 4220 at 64 ug/ml incubated for 24 hrs serial dilution method; format: functional, organism-based
Staphylococcus aureus [14] = experiment: Antibacterial activity against Staphylococcus aureus KCTC 209 at 64 ug/ml incubated for 24 hrs serial dilution method; format: functional, organism-based
Staphylococcus aureus [15] = experiment: Antibacterial activity against Staphylococcus aureus KCTC 503 at 64 ug/ml incubated for 24 hrs serial dilution method; format: functional, organism-based
Staphylococcus aureus [16] = experiment: Antibacterial activity against quinolone-resistant Staphylococcus aureus CCARM 3519 at 64 ug/ml incubated for 24 hrs serial dilution method; format: functional, organism-based
Staphylococcus aureus [17] = experiment: Antibacterial activity against quinolone-resistant Staphylococcus aureus CCARM 3505 at 64 ug/ml incubated for 24 hrs serial dilution method; format: functional, organism-based
Staphylococcus aureus [18] = experiment: Antibacterial activity against multidrug-resistant Staphylococcus aureus CCARM 3167 at 64 ug/ml incubated for 24 hrs serial dilution method; format: functional, organism-based
Staphylococcus aureus [19] = experiment: Antibacterial activity against multidrug-resistant Staphylococcus aureus CCARM 3506 at 64 ug/ml incubated for 24 hrs serial dilution method; format: functional, organism-based
Escherichia coli [20] = experiment: Antibacterial activity against Escherichia coli 1356 at 64 ug/ml incubated for 24 hrs serial dilution method; format: functional, organism-based

| SMILES | MIC (Staphylococcus aureus [1]) [µg/mL] | Ratio (Staphylococcus aureus [2]) | Ratio (Staphylococcus aureus [3]) | MIC (Staphylococcus aureus [4]) [µg/mL] | MIC (Staphylococcus aureus [5]) [µg/mL] | MIC (Staphylococcus aureus [6]) [µg/mL] | MIC (Staphylococcus aureus [7]) [µg/mL] | MIC (Staphylococcus aureus [8]) [µg/mL] | MIC (Escherichia coli [9]) [µg/mL] | Ratio (Staphylococcus aureus [10]) | Ratio (Staphylococcus aureus [11]) | MIC (Staphylococcus aureus [12]) [µg/mL] | Activity (Staphylococcus aureus [13]) | Activity (Staphylococcus aureus [14]) | Activity (Staphylococcus aureus [15]) | Activity (Staphylococcus aureus [16]) | Activity (Staphylococcus aureus [17]) | Activity (Staphylococcus aureus [18]) | Activity (Staphylococcus aureus [19]) | Activity (Escherichia coli [20]) |
| --- | --- | --- | --- | --- | --- | --- | --- | --- | --- | --- | --- | --- | --- | --- | --- | --- | --- | --- | --- | --- |
| Cc1nn(-c2ccccc2)c(Oc2ccc3ccccc3c2)c1/C=C1\SC(=S)N([C@@H](Cc2ccccc2)C(=O)O)C1=O | > 64 | 4 | 2 | > 64 | 2 (≈ 3.38 µM) | 2 (≈ 3.38 µM) | 2 (≈ 3.38 µM) | 2 (≈ 3.38 µM) | > 64 | 4 | 2 | 2 (≈ 3.38 µM) | – | – | – | – | – | – | – | – |
| COc1ccc(Oc2c(/C=C3\SC(=S)N([C@@H](Cc4ccccc4)C(=O)O)C3=O)c(C)nn2-c2ccccc2)cc1 | > 64 | 4 | 2 | > 64 | 8 (≈ 14 µM) | 8 (≈ 14 µM) | 8 (≈ 14 µM) | 4 (≈ 7 µM) | > 64 | 4 | 2 | 4 (≈ 7 µM) | – | – | – | – | – | – | – | – |
| Cc1nn(-c2ccccc2)c(Oc2ccc3ccccc3c2)c1C=O | – | – | – | – | – | – | – | – | – | – | – | – | inactive | inactive | inactive | inactive | inactive | inactive | inactive | inactive |
| Cc1nn(-c2ccccc2)c(Oc2ccccc2)c1/C=C1\SC(=S)N([C@@H](Cc2ccccc2)C(=O)O)C1=O | > 64 | 4 | 2 | > 64 | 8 (≈ 14.8 µM) | 8 (≈ 14.8 µM) | 8 (≈ 14.8 µM) | 4 (≈ 7.38 µM) | > 64 | 4 | 2 | 4 (≈ 7.38 µM) | – | – | – | – | – | – | – | – |
| Cc1cccc(Oc2c(/C=C3\SC(=S)N([C@@H](Cc4ccccc4)C(=O)O)C3=O)c(C)nn2-c2ccccc2)c1 | > 64 | 4 | 2 | > 64 | 4 (≈ 7.2 µM) | 8 (≈ 14.4 µM) | 4 (≈ 7.2 µM) | 4 (≈ 7.2 µM) | > 64 | 4 | 2 | 4 (≈ 7.2 µM) | – | – | – | – | – | – | – | – |
| Cc1nn(-c2ccccc2)c(Oc2ccccc2)c1C=O | – | – | – | – | – | – | – | – | – | – | – | – | inactive | inactive | inactive | inactive | inactive | inactive | inactive | inactive |
| Cc1nn(-c2ccccc2)c(Oc2ccccc2Cl)c1/C=C1\SC(=S)N([C@@H](Cc2ccccc2)C(=O)O)C1=O | > 64 | 4 | 2 | > 64 | 8 (≈ 13.9 µM) | 8 (≈ 13.9 µM) | 8 (≈ 13.9 µM) | 8 (≈ 13.9 µM) | > 64 | 4 | 2 | 8 (≈ 13.9 µM) | – | – | – | – | – | – | – | – |
| Cc1ccc(Oc2c(/C=C3\SC(=S)N([C@@H](Cc4ccccc4)C(=O)O)C3=O)c(C)nn2-c2ccccc2)cc1 | > 64 | 4 | 2 | > 64 | 4 (≈ 7.2 µM) | 4 (≈ 7.2 µM) | 4 (≈ 7.2 µM) | 8 (≈ 14.4 µM) | > 64 | 4 | 2 | 4 (≈ 7.2 µM) | – | – | – | – | – | – | – | – |
| Cc1ccc(Oc2c(C=O)c(C)nn2-c2ccccc2)cc1 | – | – | – | – | – | – | – | – | – | – | – | – | inactive | inactive | inactive | inactive | inactive | inactive | inactive | inactive |
